The values below come from EP2292587A1, “PHARMACEUTICAL COMPOSITION FOR INHIBITING THE TRANSCRIPTION FACTOR INDUCIBLE BY HYPOXIA, MODULATORS OF PATHOLOGICAL PROCESSES OF ANGIOGENESIS, ONCOGENESIS, INFLAMMATION, APOPTOSIS, AND CELLULAR THERAPY” (Fundacion De La Comunidad Valenciana Centro De …, priority 2008, dated 2009).

The subject of assay [1] is PHD3 and VEGF. The assay can be described thus: qPCR of PHD3 and VEGF in primary culture of epNSCs. In kind it is cell-based, rat. To be noted: 500 nM, hypoxia (1% O2), 6 to 24 hours. The source says:
Adult Wistar rats of between 2 to 3 months of age were used (the animals were handled following the mode of action which complies with section 2.1 (acceptable methods of euthanasia) of the document prepared for the DGXI of the European Commission regarding the protection of animals used for experimentation and other scientific purposes (No. L358, ISSN 0378-6978) and after the approval of the protocols by the Committee for Animal Care and Wellbeing of the Centro de Investigación Principe Felipe, Valencia, SPAIN). Once the animals were sacrificed, the dorsal part of the spinal cord was dissected and the tissue was maintained, at 4°C, in washing medium (DPBS-glucose) for its processing. To reduce the percentage of connective tissue cells the meninges as well as the most superficial blood vessels were removed. […]
Total RNA was isolated using the commercial kit RNAeasy (Qiagen) and following the manufacturer's instructions. […] The quantitative polymerase chain reaction (qPCR) was carried out using Taqman probes and primers designed by Applied Biosystem for rVEGF (Ref Rn00582935_m1), rPHD3 (Ref Rn00571341_m1) and rGAPDH (Ref Rn01775763_g1). […] The expression levels of VEGF and PHD3 were expressed as the increase of Ct with respect to the expression levels of GAPDH (constitutive expression gene): Ct (ΔCt)=Ct (VEGF or PHD3)-Ct (GAPDH). […]
In general terms: Quantitative PCR measures a nucleic acid by following its amplification.

The subject of assay [2] is c-FOS. As to the kind of experiment: selectivity luciferase assay, Hek 293-TRE-LUC. The format is cell-based. Particulars: 0-1 µM, 6 hours. On the procedure: The selectivity assays with the active compound FM19G11 were performed in white 96-well plates using the recombinant strains Hek 293-TRE-LUC and Hek 293-CRE-LUC which represent the transcriptional activity of transcription factors of the AP-1 complex. The luciferase assay for measuring transcriptional activity was performed using the kit Bright-Glo™ Luciferase Assay System (Promega, Inc., Madison, WI), following the instructions supplied by the manufacturer and the Hek 293-TRE-LUC and Hek 293-CRE-LUC lines contain the response elements of transcription factors of the AP-1 complex, specifically of c-FOS and JUNB, respectively. The Hek 293-TRE-LUC and Hek 293-CRE-LUC lines were provided by Dr. Rosa Farrás.

For assay [3], the system named is HT29. The assay can be described thus: anchorage-independent growth in semisolid agar, HT29. The format is cell-based, human. Particulars: 0.5 µM, 10 days, versus DMSO, p ≤ 0.005. Here is the method:
Anchorage-independent cell growth is a study which allows predicting the tumorigenicity of tumor cells in vivo. Anchorage-independent cell growth studies were performed for HT29, HCT116/p53^+/+ and HCT116/p53^-/- cells in semisolid agar which were monitored daily to determine the efficiency of the formation of colonies in the presence of carrier (DMSO) or FM19G11. To that end, the starting material was 75 x 10^3 cells suspended in semisolid agar, which were maintained until 10 days later. […] A reduction of the formation of colonies in the HCT116/p53^-/- cells is not observed. The growth of colonies was quantified in three independent experiments by means of counting colonies in the 4 x magnification optical field of an inverted optical microscope.

Assay [4] concerns ATR. As to the kind of experiment: activation kinetics of ATR (Western blot), HCT116/p53-/-. The format is cell-based, human. Particulars: 0.5 µM, after 1 hour. An excerpt:
To determine the degree of involvement of p53 in the possible effects caused by FM19G11, a HCT116 colon cancer cell line with expression of p53 and the same HCT116 line in which p53 was inactivated by homologous recombination were used (Bunz, F, Dutriaux, A, Lengauer, C, Waldman, T, Zhou, S, Brown, JP et al., (1998) Requirement for p53 and p21 to sustain G2 arrest after DNA damage. Science 282: 1497-501; Bunz, F, Hwang, PM, Torrance, C, Waldman, T, Zhang, Y, Dillehay, L et al., (1999) Disruption of p53 in human cancer cells alters the responses to therapeutic agents. J Clin Invest 104: 263-9.). The HCT116/p53^+/+ and HCT116/p53^-/- cells were exposed to FM19G11 (0.5 µM) at different times, the phosphorylation (activation) pattern of the ATR protein and of p53 which can be phosphorylated by ATR (Tibbetts, RS, Brumbaugh, KM, Williams, JM, Sarkaria, JN, Cliby, WA, Shieh, SY et al., (1999) A role for ATR in the DNA damage-induced phosphorylation of p53. Genes Dev 13: 152-7.), in p53-proficient HCT116 cells, as well as ATR in p53-deficient cells being analyzed (Figure 23). […] This quick activation of ATR coincides with that of p53 in HCT116/p53^+/+ cells after 1 hour of treatment with FM19G11 (0.5 µM), but the activation of p53 remains virtually on the expression of cells without drug, for the different times analyzed.
On the technique in general: In western blotting, separated proteins are transferred to a membrane and probed.

In the case of `Cc1ccc(C(=O)COC(=O)c2cccc(NC(=O)c3ccc([N+](=O)[O-])cc3[N+](=O)[O-])c2)cc1` [FM19G11, 2-oxo-2-(p-tolyl)ethyl 3-((2,4-dinitro)benzamido)benzoate], the “increase of both PHD3 and VEGF (mRNA)” value in assay [1] is recorded as “significantly inhibited”. For the same compound, in assay [2], the “transcriptional levels of Hek 293-TRE-LUC” value is given as “not affected in any case”. In addition, the “growth of colonies in semisolid agar” value in assay [3] is on record as “significant decrease”. Moreover, the “phosphorylation of ATR” value in assay [4] is listed as “quick increase”.
